Where no end group is shown, it is not given here.
Assays:
[1] = tested on: FOXO4 foci; experiment: Immunofluorescence / quantitative imaging of FOXO4 foci; format: cell-based, human
Protocol: For all immunofluorescence experiments, cells were plated in 96-well plates (Cellvis P96-1.5P). At the end of each experiment, cells were washed once with PBS and then fixed with 4% paraformaldehyde for 10 minutes at room temperature. For experiments with caspase-3/7 staining, the Caspase-3/7 reagent (Thermo Scientific Cat# C10723) was added to live cells for 30 minutes prior to fixation. Fixed cells were washed with PBS and then permeabilized with ice-cold methanol at 4°C for 10 minutes. Cells were washed with PBS and then blocked for 30 minutes with 1% Bovine Serum Albumin (BSA) in PBS. […]
Quantitative imaging was performed as described with the following exceptions. […] Quantification of fluorescence intensities was performed using CellProfiler. Briefly, the DAPI staining was used to create a nuclear mask, and fluorescence intensities of the stained markers (FOXO4, CDKN2A, CDKN1A, and TP53) and FOXO4 foci were measured within the nuclear mask. DAPI fluorescence intensity was also quantified and used for DNA content measurements. […]

[2] = Systemic delivery to aged mice, blood counts, weight, plasma urea; format: in vivo, mouse
[3] = tested on: DLD1 and SW480 cells; experiment: ES2 viability (MTS) in TP53 mutant colorectal cancer cell lines; format: cell-based, human; settings: DLD1 (S241F heterozygous), SW480 (R273H, P309S)
Protocol: Cell lines were treated with chemotherapy, doxorubicin (Sigma, Cat. No. 2252) to induce senescence (200 nM for HCT116, 100 nM for B16-F10 and MCF7, 50 nM for SW480 and DLD-1, 40 nM for A375-Luc/iRFP and MCF10a). MCF7 cells were treated with CDK4/6 inhibitor, palbociclib (Selleck Chemicals: S1116) to induce senescence (5 µM). A375 cells were treated with Braf inhibitor, Dabrafenib (Selleck Chemicals: S2807), to induce senescence (10 µM). Peptide efficacy experiments were performed by seeding 10,000 – 20,000 cells in a 96-well plate. The cells were given doxorubicin twice to make the cells senescent. After removal of doxorubicin, the plate was treated with varying concentrations of peptide. The peptide was replenished daily for two days. Cellular proliferation was quantified using the Promega CellTiter 96™ AQueous One Solution Cell Proliferation Assay (MTS) after 2 hours according to the manufacturer's protocol (Promega, G3581). To control for the charge of ES2, ProteoJuice (Millipore Sigma, 71281) was used to deliver ES2 using the manufacturers protocol, except 50 µL of 2 mM ES2 was mixed with 25 µL of ProteoJuice. Varying concentrations of the mixture were administered to A375 cells along with a control of only ProteoJuice.

[4] = tested on: senescent TP53 knockout MCF10a cells; experiment: ES2 viability in TP53 knockout vs wildtype MCF10a cells; format: cell-based, human; settings: range of ES2 treatments
Protocol: A375-Luc/iRFP cells were purchased from Creative Biogene (CSC-RR0254). B16-F10 cells were purchased (ATCC Cat# CRL-6475, RRID:CVCL_0159). MCF7 cells were purchased (ATCC Cat# HTB-22, RRID:CVCL_0031). IMR90 cells were purchased (ATCC Cat# CCL-186, RRID:CVCL_0347). A375-Luc/iRFP, B16-F10, IMR90, and MCF7 cells were cultured in Dulbecco's Modified Eagle Medium (DMEM), 10% fetal bovine serum (FBS) and 1X penicillin-streptomycin (PS). HCT-116 cells were purchased (ATCC Cat# CCL-247, RRID:CVCL_0291). DLD-1 cells were purchased (ATCC Cat# CCL-221, RRID:CVCL_0248). SW480 cells were purchased (ATCC Cat# CCL-228, RRID:CVCL_0546). HCT-116, DLD-1, and SW480 cells were cultured in Roswell Park Memorial Institute 1640 (RPMI 1640), 10% FBS, and 1X PS. […]
Cell lines were treated with chemotherapy, doxorubicin (Sigma, Cat. No. 2252) to induce senescence (200 nM for HCT116, 100 nM for B16-F10 and MCF7, 50 nM for SW480 and DLD-1, 40 nM for A375-Luc/iRFP and MCF10a). […] Cellular proliferation was quantified using the Promega CellTiter 96™ AQueous One Solution Cell Proliferation Assay (MTS) after 2 hours according to the manufacturer's protocol (Promega, G3581). […]

[5] = aged mice (82 weeks), 3 mg ES2 via tail vein weekly for three weeks, n=5

With “PRKGGRRRRAWGRRRRRRRRRRRRRRAPRKRLTLA [ES2]” the “concentration at which accumulation, co-localization with FOXO4 and disruption of focus formation observed” value ([1]; BODIPY-labelled ES2, A375 cells, 2 h) was ≥ 8 µM, the “FOXO4 foci after ES2 addition” value ([1]; senescent A375 cells, ES2 8 µM for 4 h) was “caused a loss of FOXO4 foci” and the “change in weight of the mice” value [2, 5] was “no significant change”. The “changes in numbers of white blood cells, platelets, or red blood cells” value [2, 5] was “non-significant changes”, the “toxicity after multiple doses” value ([2]; aged mice, 3 weekly i.v. doses) was “minimal toxicity” and the plasma urea levels ([2]; aged mice, endpoint, n=5) was “while not significant, were reduced”. The “cell death in senescent TP53 mutant cells” value [3] was “effective at inducing cell death in senescent cells” and the “ES2 mediated cell death in p53−/− vs p53+/+ senescent MCF10a” value [4] was “resistant to ES2 mediated cell death”.

— PMC8546421, “Molecular modelling of the FOXO4-TP53 interaction to design senolytic peptides for the elimination of senescent cancer cells” (EBioMedicine, 2021)
